Where a name gives a salt, the structure may show the parent alone. Read-outs that look alike come from different tables or passages of the source.
Columns and labels:
[1] = system: ATXN2-luc; test: NCATS qHTS (LOPAC pilot, primary and confirmation): ATXN2-luc in S2 cells, 1536-well, Steady-Glo; type: cell-based, human; settings: for Curve Class: LOPAC library (1,280 compounds) screening optimization, signed sub-classes (-1.1, -2.2, -3 ...)
Procedure: We next performed a pilot screen assay to optimize the 1536-well qHTS using S2 cells. […] Cytotoxicity was determined using a multiplexed viability assay (CellTiter-Fluor, a fluorescence-based viability assay using Gly-Phe-7-amino-4-trifluoromethylcoumarin substrate).
CellTiter-Fluor was used to determine compound effect on cell viability, and Steady-Glo was used to measure luciferase in a multiplexed assay.
The primary assay was conducted at the NCATS NIH Chemical Genomics Center laboratory. About 4 μl of S2 cell suspension in phenol red–free DMEM was dispensed into wells of 1536-well assay plates. […] Next, SteadyGlo luciferase substrate detection reagent (3 μl) was added to each well and incubated for an additional 5 min at room temperature. Luminescence was then measured on the ViewLux imager equipped with clear filters using a 2 s exposure. All screening operations were performed on a fully integrated robotic system (Kalypsys) containing one RX-130 and two RX-90 anthropomorphic robotic arms (Stäubli). Vehicle-only plates, with DMSO being pin-transferred to columns 5 to 48, were inserted uniformly at the beginning and the end of each library in order to monitor and record any shifts in assay performance.

[2] = system: ATXN2-luc; test: MSSR pilot screen: ATXN2-luc luciferase assay (Bright-Glo) in H2 cells, single 10 μM dose; type: cell-based, human; settings: H2 cells, single dose (title: 10 μM compound), overnight
[3] = Homo sapiens, LOPAC library screening optimization, logarithm of AC50 (negative values), read-out: Log AC50 (converted)
[4] = Homo sapiens, LOPAC library screening optimization, read-out: AC50
[5] = LOPAC library screening optimization, curve-fit parameter
[6] = LOPAC library screening optimization, logarithm of AC50 (negative values)
[7] = LOPAC library screening optimization, read-out: AC50

Row | SMILES | AC50 [1, 3] | AC50 [1, 4] | Efficacy [1, 5] | Inf Activity [1, 5] | Curve Class [1] | Log AC50 [1, 6] | AC50 [1, 7] | Hill Coef [1, 5] | Zero Activity [1, 5] | Max Resp ([1]; LOPAC library screening optimization, response at highest tested concentration) | SD from mean (ATXN2-luc, Z-score) [2]
1 | Br.CC1C2Cc3ccc(O)cc3C1(C)CCN2CCc1ccccc1 (single isomer, unassigned; (+)) [(+)-Phenazocine hydrobromide] | 17.8 µM | 17.8 µM | -59.8542 | -62.9667 | – | – | – | – | – | – | –
2 | Oc1ccc2c3c1O[C@H]1c4[nH]c5ccccc5c4C[C@@]4(O)[C@@H](C2)N(CC2CC2)CC[C@]314 [Naltrindole hydrochloride] | 14.1 µM | 14.1 µM | – | – | -2.2 | -4.75 | 17.8 µM | – | – | – | –
3 | Nc1nc(=S)c2ncn([C@@H]3O[C@H](CO)[C@@H](O)[C@H]3O)c2[nH]1 [Thioguanosine] | 3.55 µM | 3.55 µM | -64.1845 | -62.8466 | – | – | – | – | – | – | –
4 | CC[C@@H](O)C(C[C@@H](C)N(C)C)(c1ccccc1)c1ccccc1.Cl [(-)-alpha-Methadol hydrochloride] | 31.6 µM | 31.6 µM | -53.231 | -52.9785 | – | – | – | – | – | – | –
5 | C[C@H](N)CN1CCc2ccc(Br)cc21 [VER-3323 hemifumarate salt] | 11.2 µM | 11.2 µM | – | – | -2.2 | -4.8 | 15.8 µM | – | – | – | –
6 | CCc1cccc(N(C)C(N)=Nc2cccc3ccccc23)c1 [CNS-1102] | 12.6 µM | 12.6 µM | – | – | -2.2 | -4.7 | 20 µM | – | – | – | –
7 | CNCC[C@@H](Oc1ccccc1C)c1ccccc1 [Tomoxetine] | 28.2 µM | 28.2 µM | -86.2041 | -86.6862 | -2.2 | – | – | – | – | – | –
8 | CC(C)NC[C@@H](O)c1ccc(O)c(O)c1 [S(+)-Isoproterenol (+)-bitartrate] | 31.6 µM | 31.6 µM | -77.2877 | -79.7998 | – | – | – | – | – | – | –
9 | CNCCC(Oc1ccc(C(F)(F)F)cc1)c1ccccc1.Cl (stereo not shown) [MLS001076338-01] | – | – | -91.3933 | -89.6057 | -3 | -4.6 | 25.1 µM | 3.5722 | 1.7876 | -84.8539 | –
10 | CNCCCC1c2ccccc2C=Cc2ccccc21 [Protriptyline hydrochloride] | 31.6 µM | 31.6 µM | -59.559 | -66.4303 | – | – | – | – | – | – | –
11 | C[C@@H]1O[C@@H](O[C@H]2C[C@@H](O)[C@]3(CO)[C@@H]4[C@@H](O)C[C@]5(C)[C@H](C6=CC(=O)OC6)CC[C@@]5(O)[C@H]4CC[C@@]3(O)C2)[C@H](O)[C@H](O)[C@@H]1O.O.O.O.O.O.O.O.O [Strophantine octahydrate] | 0.0891 µM | 0.0891 µM | -95.9071 | -89.7119 | – | – | – | – | – | – | -3.624 SD
12 | CNCC[C@H](Oc1ccc(C(F)(F)F)cc1)c1ccccc1 [S-(+)-Fluoxetine hydrochloride] | 14.1 µM | 14.1 µM | – | – | -2.2 | -4.8 | 15.8 µM | – | – | – | –

— article PMC9356275, “A quantitative high-throughput screen identifies compounds that lower expression of the SCA2-and ALS-associated gene ATXN2” (The Journal of Biological Chemistry, 2022)
